According to patent US20070173539A1, “Use of malonomicin and analogs in fungicidal applications” (priority 2006, published 2007):

Tests used:
Type in all cases: in vivo
[1] = system: Plasmopara viticola (PLASVI); test: Downy Mildew of Grape one day protectant (1DP); conditions: grape (Carignane), sprayed to runoff, rate 200 ppm
Experimental: Final treatment volumes were obtained by adding 0.1 percent aqueous Ethomeen T25 or 0.1 percent aqueous Spraymate X77+0.1 percent wt./vol. ammonium sulfate^+. Downy Mildew of Grape (Plasmopara viticola-[…]) Vines (cultivar Carignane) were grown from seed in a soilless peat-based potting mixture “Metro-Mix 360” (W.R Grace and Co.) until the seedlings were 10-20 cm tall. These plants were then sprayed to runoff with the test compound at a rate of 200 ppm. After 24 hours the test plants were inoculated by spraying with an aqueous sporangia suspension of Plasmopara viticola ([…]). The plants were then transferred to a dew chamber for 24 hours, then to the greenhouse until disease developed on the untreated control plants.

[2] = system: Leptosphaeria nodorum (LEPTNO); test: Glume Blotch of Wheat one day protectant (1DP); conditions: wheat (Yuma), sprayed to runoff, rate 200 ppm
Experimental: Final treatment volumes were obtained by adding 0.1 percent aqueous Ethomeen T25 or 0.1 percent aqueous Spraymate X77+0.1 percent wt./vol. ammonium sulfate^+. Glume Blotch of Wheat (Leptosphaeria nodorum-[…]) Wheat (cultivar Yuma) was grown in plastic pots (6.2 cm×8.75 cm) containing 50 percent mineral soil, 50 percent Metro-Mix 360 (W.R Grace and Co.). until the seedlings were 10-20 cm tall. These plants were then sprayed to runoff with the test compound at a rate of 200 ppm. After 24 hours the test plants were inoculated by spraying with an aqueous spore suspension of Leptosphaeria nodorum ([…]). The plants were then transferred to a dew chamber for 24 hours, then to the greenhouse until disease developed on the untreated control plants.

[3] = system: Septoria tritici (SEPTTR); test: Speckled Leaf Blotch of Wheat one day protectant (1DP); conditions: wheat (Monon), sprayed to runoff, rate 200 ppm
Experimental: Final treatment volumes were obtained by adding 0.1 percent aqueous Ethomeen T25 or 0.1 percent aqueous Spraymate X77+0.1 percent wt./vol. ammonium sulfate^+. Speckled Leaf Blotch of Wheat (Septoria tritici-[…]) Wheat (cultivar Monon) was grown in plastic pots (6.2 cm×8.75 cm) containing 50 percent mineral soil, 50 percent Metro-Mix 360 (W.R Grace and Co.) until the seedlings were 10-20 cm tall. These plants were then sprayed to runoff with the test compound at a rate of 200 ppm. After 24 hours the test plants were inoculated by spraying with an aqueous spore suspension of Septoria tritici ([…]). The plants were then transferred to a dew chamber for 24 hours, then to the greenhouse until disease developed on the untreated control plants.

[4] = system: Erysiphe graminis f. sp. tritici (ERYSGT); test: Powdery Mildew of Wheat one day protectant (1DP); conditions: wheat (Monon), sprayed to runoff, rate 200 ppm
Experimental: Final treatment volumes were obtained by adding 0.1 percent aqueous Ethomeen T25 or 0.1 percent aqueous Spraymate X77+0.1 percent wt./vol. ammonium sulfate^+. Powdery Mildew of Wheat (Erysiphe graminis f. sp. tritici-[…]) Wheat (cultivar Monon) was grown in plastic pots (6.2 cm×8.75 cm) containing 50 percent mineral soil, 50 percent Metro-Mix 360 (W.R Grace and Co.) until the seedlings were 10-20 cm tall. These plants were then sprayed to runoff with the test compound at a rate of 200 ppm. After 24 hours the test plants were inoculated with Erysiphe graminis f. sp. tritici ([…]) by dusting spores from stock plants onto the test plants. The plants were then transferred to the greenhouse until disease developed on the untreated control plants.

[5] = system: Venturia inaequalis (VENTIN); test: Apple Scab one day protectant (1DP); conditions: 0.1 percent Spraymate X77 + 0.1 percent ammonium sulfate
[6] = system: Venturia inaequalis (VENTIN); test: Apple Scab curative (compound added 2 days after inoculation); conditions: Curative at 200 ppm
[7] = system: Puccinia recondita f. sp. tritici PUCCRT; test: Curative low volume test, wheat brown rust; conditions: low volume 300 L/ha; for PUCCRT 1DC percent disease control: curative 1 day; for PUCCRT 3DC percent disease control: curative 3 days
Septoria tritici SEPTTR = test: Curative low volume test, wheat leaf blotch; conditions: curative 3 days, low volume 300 L/ha
Experimental: Tomatoes and grapes were grown in a soil-less peat-based potting mixture (Metro-Mix 360) while wheat was propagated in a 50/50 mix of mineral soil and Metro-Mix 360.
The malonomicin sample (Compound I) used in the low volume foliar spray was prepared by dissolving the material in deionized water with the desired adjuvant concentration. (0.05 percent Spraymate X-77+0.05 percent PVA+0.1 percent ammonium sulfate+0.1 percent EDTA)
For low volume applications, compound was applied to plants at the spray volume of 300 L/ha using a track sprayer with an SS8003E spray nozzle and a spray pressure of 255 kPa with a boom height of 40 cm from test plants. For a control, the same mixture is sprayed without active ingredient (solvent control).
Curative tests (DC) were inoculated the designated day(s) prior to treatment application. Disease severity was assessed as the percentage of the total surface area of the sprayed leaves covered by disease. Percent disease control relative to the solvent control was then calculated. Phytotoxicity symptoms and severity, if present, were also recorded. Four replicate plants per treatment for low volume applications were used.
Wheat plants were inoculated using approximately 1×10^7 spores/mL. Distilled water was poured into inoculum plates and the spores were dislodged using a spatula. The spores and water were filtered through 2 layers of cheesecloth, and three drops of Tween 20 per 100 mL of solution were added as a wetter. Test plants were then placed in a walk-in dew room at 22° C., 99 percent RH for 24 hours, after which time the plants were sub-irrigated with Hoagland's solution for 30 minutes and then moved into a misting greenhouse system where they were lightly misted every 90 seconds for three days. When the three-day misting period was completed, the plants were moved to the dry area of the greenhouse and bottom-watered daily until disease was fully expressed on the solvent control (10-14 days in summer, 14-21 days in winter). During the fall and winter months, the addition of a cart hood was used post-dew room, until assessment, in order to enhance disease uniformity and expression.

NC[C@@H]1NC(=O)C(C(=O)CC(NC(=O)[C@@H](N)CO)(C(=O)O)C(=O)O)=C1O [Compound I, {[(2S)-2-amino-3-hydroxypropanoyl]amino}{2-[(5S)-5-(aminomethyl)-4-hydroxy-2-oxo-2,5-dihydro-1H-pyrrol-3-yl]-2-oxoethyl}malonic acid]
PLASVI percent control of plant disease [1]: ++ (++ = 75-100 percent control of plant disease) | LEPTNO percent control of plant disease [2]: + (+ = 30-74 percent control of plant disease) | SEPTTR percent control of plant disease [3]: ++ (++ = 75-100 percent control of plant disease) | ERYSGT percent control of plant disease [4]: − (− = 0-29 percent control of plant disease) | VENTIN percent control of plant disease ([5]; 50 ppm): ++ (++ = 75-100 percent control of plant disease) | VENTIN percent control of plant disease ([5]; 100 ppm): ++ (++ = 75-100 percent control of plant disease) | VENTIN percent control of plant disease ([5]; rate 200 ppm): + (+ = 30-74 percent control of plant disease) | VENTIN percent control of plant disease [6]: ++ (++ = 75-100 percent control of plant disease) | PUCCRT 1DC percent disease control ([7]; 7.8 g ai/ha): − (− = 0-29 percent control of plant disease) | PUCCRT 1DC percent disease control ([7]; 15.6 g ai/ha): − (− = 0-29 percent control of plant disease) | PUCCRT 1DC percent disease control ([7]; 31.2 g ai/ha): + (+ = 30-74 percent control of plant disease) | PUCCRT 1DC percent disease control ([7]; 62.5 g ai/ha): + (+ = 30-74 percent control of plant disease) | PUCCRT 1DC percent disease control ([7]; 125 g ai/ha): ++ (++ = 75-100 percent control) | PUCCRT 1DC percent disease control ([7]; 250 g ai/ha): ++ (++ = 75-100 percent control) | PUCCRT 3DC percent disease control ([7]; 7.8 g ai/ha): − (− = 0-29 percent control of plant disease) | PUCCRT 3DC percent disease control ([7]; 15.6 g ai/ha): + (+ = 30-74 percent control of plant disease) | PUCCRT 3DC percent disease control ([7]; 31.2 g ai/ha): ++ (++ = 75-100 percent control) | PUCCRT 3DC percent disease control ([7]; 62.5 g ai/ha): ++ (++ = 75-100 percent control) | PUCCRT 3DC percent disease control ([7]; 125 g ai/ha): ++ (++ = 75-100 percent control) | PUCCRT 3DC percent disease control ([7]; 250 g ai/ha): ++ (++ = 75-100 percent control) | SEPTTR 3DC percent disease control (Septoria tritici SEPTTR; 7.8 g ai/ha): ++ (++ = 75-100 percent control) | SEPTTR 3DC percent disease control (Septoria tritici SEPTTR; 15.6 g ai/ha): ++ (++ = 75-100 percent control) | SEPTTR 3DC percent disease control (Septoria tritici SEPTTR; 31.2 g ai/ha): ++ (++ = 75-100 percent control) | SEPTTR 3DC percent disease control (Septoria tritici SEPTTR; 62.5 g ai/ha): ++ (++ = 75-100 percent control) | SEPTTR 3DC percent disease control (Septoria tritici SEPTTR; 125 g ai/ha): ++ (++ = 75-100 percent control) | SEPTTR 3DC percent disease control (Septoria tritici SEPTTR; 250 g ai/ha): ++ (++ = 75-100 percent control)
